Experimental findings from patent US9616064B2, “Rho kinase inhibitors and methods of use” (H. LEE MOFFITT CANCER CENTER AND RESEARCH INSTITUTE, INC., priority 2011, dated 2017) are described below.

Like-named read-outs stand apart in the source and are kept apart here.

The test has as its target ROCK1 (Homo sapiens (Human), UniProt Q13464). Briefly: Z-lyte FRET assay to measure kinase inhibition, ROCK1. Format: biochemical. The following applies: for inhibition at 50 µM: read-out: ROCK1 % inhibition @ 50 μM, 50 μM compound; for inhibition at 100 µM: read-out: ROCK1 % inhibition @ 100 μM, 100 μM compound.

Sequence of ROCK1 (Q13464 whole entry): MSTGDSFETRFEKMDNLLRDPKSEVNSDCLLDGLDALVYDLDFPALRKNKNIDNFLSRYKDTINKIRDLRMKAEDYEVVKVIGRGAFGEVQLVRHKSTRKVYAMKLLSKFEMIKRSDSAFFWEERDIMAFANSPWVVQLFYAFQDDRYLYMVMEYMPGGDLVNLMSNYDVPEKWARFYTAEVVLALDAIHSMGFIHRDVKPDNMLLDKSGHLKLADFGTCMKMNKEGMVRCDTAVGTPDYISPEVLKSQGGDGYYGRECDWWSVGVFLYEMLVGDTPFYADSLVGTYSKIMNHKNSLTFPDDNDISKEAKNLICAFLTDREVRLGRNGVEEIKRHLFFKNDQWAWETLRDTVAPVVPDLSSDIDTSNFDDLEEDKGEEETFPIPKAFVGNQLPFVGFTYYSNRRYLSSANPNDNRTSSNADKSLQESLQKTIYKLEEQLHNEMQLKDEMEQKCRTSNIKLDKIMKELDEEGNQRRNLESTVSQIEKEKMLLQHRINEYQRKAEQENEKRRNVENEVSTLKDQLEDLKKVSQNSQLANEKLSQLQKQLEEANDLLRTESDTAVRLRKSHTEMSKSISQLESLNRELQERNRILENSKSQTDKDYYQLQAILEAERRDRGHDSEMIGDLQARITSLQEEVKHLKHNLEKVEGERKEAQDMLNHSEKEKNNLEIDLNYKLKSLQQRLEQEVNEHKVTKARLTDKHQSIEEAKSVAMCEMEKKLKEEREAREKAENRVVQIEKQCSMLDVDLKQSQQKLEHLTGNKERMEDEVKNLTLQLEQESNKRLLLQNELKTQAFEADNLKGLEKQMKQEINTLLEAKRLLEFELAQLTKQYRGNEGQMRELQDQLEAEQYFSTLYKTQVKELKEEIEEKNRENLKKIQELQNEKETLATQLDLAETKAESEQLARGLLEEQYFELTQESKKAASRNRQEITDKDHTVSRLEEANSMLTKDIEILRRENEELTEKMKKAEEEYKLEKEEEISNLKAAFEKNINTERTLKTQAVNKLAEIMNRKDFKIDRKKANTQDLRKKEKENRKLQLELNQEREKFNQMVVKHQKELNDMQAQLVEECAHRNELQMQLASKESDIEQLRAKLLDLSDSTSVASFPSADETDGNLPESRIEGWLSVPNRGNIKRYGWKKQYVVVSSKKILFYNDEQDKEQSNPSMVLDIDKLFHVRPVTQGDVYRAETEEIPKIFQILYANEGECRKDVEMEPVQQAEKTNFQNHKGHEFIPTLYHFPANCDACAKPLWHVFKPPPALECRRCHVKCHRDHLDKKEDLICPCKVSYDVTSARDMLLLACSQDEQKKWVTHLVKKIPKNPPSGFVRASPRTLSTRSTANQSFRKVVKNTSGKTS

As usually defined, the inhibition is the change of the read-out against control, counted positive when it falls. As for `Nc1nccc(Nc2ccc(S(=O)(=O)Nc3ccnn3-c3ccccc3)cc2)n1`, the inhibition at 50 µM came out at 1.8 ± 0.8%.

As for `Nc1nccc(Nc2ccc(S(=O)(=O)Nc3nccs3)cc2)n1`, the inhibition at 50 µM worked out at 21 ± 10%.

For the compound `Nc1nccc(Nc2ccc(S(=O)(=O)Nc3ccccn3)cc2)n1`, the inhibition at 50 µM was 2.8 ± 2.3%.

Regarding `Nc1nccc(Nc2ccc(S(=O)(=O)N3CCN(c4cccc(C(F)(F)F)c4)CC3)cc2)n1`, the inhibition at 50 µM is -0.3 ± 0.7%.

Consider `CC(=O)NS(=O)(=O)c1ccc(Nc2ccnc(N)n2)cc1`, for which the inhibition at 50 µM came out at 9 ± 1.5%.

As for `Nc1nccc(Nc2ccc(S(=O)(=O)NC(=O)c3ccccc3)cc2)n1`, the inhibition at 50 µM turned out to be 2.1 ± 1.9%.

Regarding `Nc1nccc(Nc2ccc(S(=O)(=O)NCc3ccccc3)cc2)n1`, the inhibition at 50 µM was found to be 30 ± 1%.

The term IC50 denotes the concentration that gives 50% inhibition. With `NS(=O)(=O)c1ccc(Nc2ncnc3nc[nH]c23)cc1`, the inhibition at 50 µM turned out to be 54 ± 4%. Moreover, the IC50 (read-out: ROCK1 IC50) is 42.7 ± 0.9 µM.

On to `Nc1nc(Nc2ccc(S(N)(=O)=O)cc2)c2[nH]cnc2n1`, for which the inhibition at 50 µM came out at 9 ± 2%.

Regarding `Nc1nccc(Nc2ccc(S(=O)(=O)Nc3ccccc3)cc2)n1`, the inhibition at 50 µM came out at 46 ± 4%. The IC50 (read-out: ROCK1 IC50) was > 100 µM.

With `Cc1cc(Nc2cccc(S(N)(=O)=O)c2)nc(N)n1`, the inhibition at 50 µM was 0.8 ± 1.2%.

In the case of `CC(=O)Nc1cccc(Nc2ccnc(N)n2)c1`, the inhibition at 50 µM was 42 ± 6%.

Turning to `CC(=O)N1CCc2ccc(Nc3ccnc(N)n3)cc21`, the inhibition at 50 µM stood at 10 ± 12%.

As for `Nc1nccc(Nc2cc(S(N)(=O)=O)ccc2O)n1`, the inhibition at 50 µM came out at 36 ± 5%.

Regarding `COc1cc(NC(C)=O)ccc1Nc1ccnc(N)n1`, the inhibition at 50 µM amounted to 2 ± 1%.

Turning to `Nc1nccc(Nc2ccc(CC(=O)O)cc2)n1`, the inhibition at 50 µM came out at 2 ± 1%.

As for `CS(=O)(=O)c1ccc(Nc2ccnc(N)n2)cc1`, the inhibition at 50 µM amounted to 38 ± 1%.

`Nc1nccc(Nc2ccc3[nH]ccc3c2)n1`: the inhibition at 50 µM stood at 37 ± 1%.

As for `Nc1nccc(Nc2ccc3cc[nH]c3c2)n1`, the inhibition at 50 µM worked out at 23 ± 1%.

With `CCc1ccc(Nc2ccnc(N)n2)cc1`, the inhibition at 50 µM turned out to be 36 ± 6%.

For the compound `CCOc1ccc(Nc2ccnc(N)n2)cc1`, the inhibition at 50 µM is 31 ± 4%.

Consider `Nc1nccc(Oc2ccccc2)n1`, for which the inhibition at 50 µM was -0.5 ± 1%.

For the compound `Nc1nccc(Oc2ccc(S(N)(=O)=O)cc2)n1`, the inhibition at 50 µM was -0.3 ± 1%.

As for `NC(=O)c1ccc(Oc2ccnc(N)n2)cc1`, the inhibition at 50 µM is 2 ± 1%.

In the case of `Clc1nccc(N2CCc3ccccc32)n1`, the inhibition at 50 µM was -3 ± 1%.

Turning to `c1ccc(Nc2nccc(N3CCc4ccccc43)n2)cc1`, the inhibition at 50 µM is -1 ± 2%.

On to `Nc1nccc(N2CCc3ccccc3C2)n1`, for which the inhibition at 50 µM amounted to 6 ± 1%.

As to `Nc1nccc(N2CCc3cc([N+](=O)[O-])ccc32)n1`, the inhibition at 50 µM was 24 ± 2%.

For `Nc1nccc(N2c3ccccc3CC2c2ccccc2)n1` (stereo not shown), the inhibition at 50 µM came to 18 ± 1%.

Regarding `Nc1nccc(N2c3ccccc3CC2C(=O)O)n1` (stereo not shown), the inhibition at 50 µM is 6 ± 0.4%.

On to `Nc1nccc(-n2ccc3c(C(=O)Nc4ccccc4)cccc32)n1`, for which the inhibition at 50 µM was found to be 9 ± 1%.

On to `Nc1nccc(-n2ccc3cc(NC(=O)c4ccccc4)ccc32)n1`, for which the inhibition at 50 µM stood at 8 ± 3%.

For the compound `Nc1nccc(-n2ccc3cc(C(=O)Nc4ccccc4)ccc32)n1`, the inhibition at 50 µM was determined as 17 ± 2%.

Turning to `Nc1nccc(Nc2ccccc2OCc2ccccc2)n1`, the inhibition at 50 µM was determined as 22 ± 4%.

`Nc1nccc(-n2ccc3c(OCc4cccc(Cl)c4F)cccc32)n1`: the inhibition at 50 µM is 10 ± 2%.

Consider `Nc1nccc(-n2ccc3cc(OCCc4ccccc4)ccc32)n1`, for which the inhibition at 50 µM worked out at 21 ± 14%.

In the case of `Nc1nccc(-n2ccc3ccc(OCc4ccccc4)cc32)n1`, the inhibition at 50 µM is -5 ± 2%.

With `Nc1nccc(-n2ccc3cccc(OCc4ccccc4)c32)n1`, the inhibition at 50 µM was -5 ± 0.5%.

In the case of `c1ccc(COc2cccc3c2CCN3c2ncnc3[nH]ccc23)cc1`, the inhibition at 50 µM turned out to be 33 ± 4%.

Regarding `Nc1nccc(-n2ccc3c(C(=O)NCc4ccccc4Cl)cccc32)n1`, the inhibition at 50 µM worked out at 39.2 ± 4.19%.

With `Nc1nccc(-n2ccc3c(C(=O)NCc4ccc(Cl)cc4)cccc32)n1`, the inhibition at 50 µM came out at 31 ± 10%.

For `COc1ccc(CNC(=O)c2cccc3c2ccn3-c2ccnc(N)n2)cc1`, the inhibition at 50 µM turned out to be 19.4 ± 13.7%.

Consider `COc1cccc(CC(=O)Nc2cccc3c2ccn3-c2ccnc(N)n2)c1`, for which the inhibition at 100 µM came out at 62%. Under “read-out: ROCK1 IC50”, the 50% inhibitory concentration (IC50) worked out at 13 ± 6.81 µM.

In the case of `CS(=O)(=O)Nc1cccc(CNC(=O)c2cccc3c2ccn3-c2ccnc(N)n2)c1`, the inhibition at 100 µM was determined as 100%. The concentration for half-maximal inhibition (IC50) (read-out: ROCK1 IC50) stood at 3.26 ± 0.57 µM.

`CC(=O)Nc1cccc(CNC(=O)c2cccc3c2ccn3-c2ccnc(N)n2)c1`: the inhibition at 100 µM came out at 117%. The IC50 (read-out: ROCK1 IC50) is 1.39 ± 0.26 µM.

Take `CC[C@@H](NC(=O)c1cccc2c1ccn2-c1ccnc(N)n1)c1ccccc1`: the inhibition at 100 µM was 122%. Besides, the IC50 (read-out: ROCK1 IC50) was 1.77 ± 0.24 µM.

Turning to `COC[C@H](NC(=O)c1cccc2c1ccn2-c1ccnc(N)n1)c1ccccc1`, the inhibition at 100 µM came to 91%. Under “read-out: ROCK1 IC50”, the IC50 stood at 15.4 ± 6.04 µM.

`COc1cccc(CN(C)C(=O)c2cccc3c2ccn3-c2ccnc(N)n2)c1`: the inhibition at 100 µM was found to be 89%. In addition, the IC50 (read-out: ROCK1 IC50) was 15.2 ± 3.74 µM.

In the case of `COc1cccc(CNC(=O)c2cccc3c2ccn3-c2ccnc(NC(C)=O)n2)c1`, the inhibition at 100 µM came out at 80%. Also, under “read-out: ROCK1 IC50”, the IC50 turned out to be 15.4 ± 4.02 µM.

Turning to `COCCOc1cccc(CNC(=O)c2cccc3c2ccn3-c2ccnc(N)n2)c1`, the inhibition at 100 µM amounted to 86%. The IC50 (read-out: ROCK1 IC50) worked out at 9.31 ± 8.68 µM.

Regarding `CCOc1cccc(CNC(=O)c2cccc3c2ccn3-c2ccnc(N)n2)c1`, the inhibition at 100 µM is 61%. Moreover, the half-maximal inhibitory concentration (IC50) (read-out: ROCK1 IC50) was 3.37 ± 0.53 µM.

As for `Nc1nccc(-n2ccc3c(C(=O)NCc4ccccc4-c4ccccc4)cccc32)n1`, the inhibition at 100 µM came out at 7%.

As to `CC(=O)N(C)c1cccc(CNC(=O)c2cccc3c2ccn3-c2ccnc(N)n2)c1`, the inhibition at 100 µM stood at 47%. For the same compound, for the setting “read-out: ROCK1 IC50”, the IC50 was determined as 40.3 ± 11 µM.

For `Nc1nccc(-n2ccc3c(C(=O)NCc4cccc(N5CCCC5=O)c4)cccc32)n1`, the inhibition at 100 µM worked out at 99%. Under “read-out: ROCK1 IC50”, the IC50 amounted to 8.31 ± 7.39 µM.

For `COc1cccc(CNC(=O)c2cccc(Nc3ccnc(N)n3)c2)c1`, the inhibition at 100 µM is 97%. For the setting “read-out: ROCK1 IC50”, the IC50 turned out to be 7.3 ± 1.29 µM.

Turning to `COc1cccc(CNS(=O)(=O)c2cccc(Nc3ccnc(N)n3)c2)c1`, the inhibition at 100 µM came out at 70%. Further, the IC50 (read-out: ROCK1 IC50) was determined as 33.4 ± 8.52 µM.

For the compound `COc1cccc([C@@H](C)NC(=O)c2cccc3c2ccn3-c2ccnc(N)n2)c1`, the inhibition at 100 µM is 92%. Moreover, for the setting “read-out: ROCK1 IC50”, the IC50 was 0.213 ± 0.025 µM.

With `COc1cccc([C@H](C)NC(=O)c2cccc3c2ccn3-c2ccnc(N)n2)c1`, the inhibition at 100 µM was 97%. Moreover, the IC50 (read-out: ROCK1 IC50) is 1.38 ± 0.63 µM.

As to `Nc1nccc(Nc2ccccc2Cl)n1`, the inhibition at 100 µM turned out to be 39%.

As for `Nc1nccc(Nc2cccc(Cl)c2)n1`, the inhibition at 100 µM stood at 89%. For the same compound, the IC50 (read-out: ROCK1 IC50) turned out to be 5.71 ± 1.44 µM.

In the case of `COc1cccc(CNC(=O)c2cccc3c2ccn3-c2cc(N)nc(N)n2)c1`, the inhibition at 50 µM amounted to 1.26 ± 0.79%.

For the compound `CC[C@H](NC(=O)c1cccc2c1ccn2-c1ccnc(N)n1)c1ccccc1`, the inhibition at 100 µM was found to be 88%. For the setting “read-out: ROCK1 IC50”, the IC50 was 9.76 ± 0.86 µM.

As for `Nc1nccc(Nc2ccc(S(N)(=O)=O)cc2)n1` [NSC-135784, reference compound], where the note is “NCI sample, screening hit, weak inhibitor, read-out: IC50 (screen of NCI Diversity set, NCI sample)”, the IC50 came to 92 µM.
